Data on 41 molecules can be found in patent publication US20060217418A1, “Substituted alkyl amido piperidines” (priority 2001, published 2006).

pKi: −log10 of the molar value.

T1 sequence (P97639 whole entry): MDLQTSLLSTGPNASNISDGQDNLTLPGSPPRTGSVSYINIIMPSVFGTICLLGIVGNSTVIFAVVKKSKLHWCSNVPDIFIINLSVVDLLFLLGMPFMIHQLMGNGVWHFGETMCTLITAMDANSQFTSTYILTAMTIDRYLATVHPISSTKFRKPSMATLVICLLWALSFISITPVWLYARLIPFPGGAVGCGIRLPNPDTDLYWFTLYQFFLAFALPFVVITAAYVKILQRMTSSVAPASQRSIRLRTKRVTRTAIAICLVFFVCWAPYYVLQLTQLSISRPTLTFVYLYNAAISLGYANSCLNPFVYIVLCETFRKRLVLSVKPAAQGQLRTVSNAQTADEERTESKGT

The experiment addresses T1, rat MCH1 receptor (Rattus norvegicus, UniProt P97639).
T1 construct: operatively linked to DNA encoding the rat MCH1 receptor so as to permit expression thereof; expressed in transfected cells; host or cells: Human embryonic kidney Peak rapid 293 (Peakr293) cells, transient calcium phosphate transfection, membranes
The experiment can be described thus: Radioligand binding assay at cloned rat MCH1 receptor ([3H]Compound A). As to conditions: cloned rat MCH1, Peakr293 cell membranes, 0.08 nM [3H]Compound A, 25° C., 90 minutes; read-out: Ki(MCH-1).
Take `O=C(Nc1cccc(C2CCN(CCCNC(=O)C3(c4ccc(Cl)cc4)CC3)CC2)c1)C1CC1` [Example 118]: the pKi (as a rule, the Ki on a negative log10 scale, so that one unit is a factor of ten) is 7.86.

Turning to `O=C(Nc1cccc(C2CCN(CCCNC(=O)C3(c4ccc(F)cc4Cl)CCCC3)CC2)c1)C1CC1` [Example 119, 1-(2-CHLORO-4-FLUOROPHENYL)-N-[3-(4-{3-[(CYCLOPROPYLCARBONYL)AMINO] PHENYL}-1-PIPERIDINYL)PROPYL]CYCLOPENTANECARBOXAMIDE], the pKi was 7.73. On to `O=C(Nc1cccc(C2CCN(CCCNC(=O)C(c3ccc(F)cc3)c3ccc(F)cc3)CC2)c1)C1CC1` [Example 120, N-{3-[1-(3-{[2,2-BIS(4-FLUOROPHENYL)ACETYL]AMINO}PROPYL)-4-PIPERIDINYL] PHENYL}CYCLOPROPANECARBOXAMIDE], for which the pKi was 9.40.

In the case of `O=C(Nc1cccc(C2CCN(CCCNC(=O)C3(c4ccc(F)cc4)CCCC3)CC2)c1)C1CC1` [Example 121, N-[3-(4-{3-[(CYCLOPROPYLCARBONYL)AMINO]PHENYL}-1-PIPERIDINYL) PROPYL]-1-(4-FLUOROPHENYL)CYCLOPENTANECARBOXAMIDE], the negative-log Ki (pKi) was 7.99.

`CCC(C(=O)NCCCN1CCC(c2cccc(NC(=O)C3CC3)c2)CC1)(c1ccccc1)c1ccccc1` [Example 122, N-[3-(1-{3-[(2,2-DIPHENYLBUTANOYL)AMINO]PROPYL}-4-PIPERIDINYL)PHENYL] CYCLOPROPANECARBOXAMIDE]: the negative logarithm of the Ki (pKi) is 8.32. The result for `CC(C(=O)NCCCN1CCC(c2cccc(NC(=O)C3CC3)c2)CC1)(c1ccccc1)c1ccccc1` [Example 123, N-[3-(1-{3-[(2,2-DIPHENYLPROPANOYL)AMINO]PROPYL}-4-PIPERIDINYL)PHENYL] CYCLOPROPANECARBOXAMIDE] reads 8.55; that for `Cc1ccc(NC(=O)C(C)C)cc1C1CCN(CCCNC(=O)C(F)(F)c2ccccc2)CC1` [Example 124], 7.40.

Take `CC(C)C(=O)Nc1cccc(C2CCN(CCCNC(=O)C(F)(F)c3ccccc3)CC2)c1` [Example 125, N-{3-[1-(3{[DIFLUORO(PHENYL)ACETYL]AMINO}PROPYL)-4-PIPERIDINYL] PHENYL}2-METHYLPROPANAMIDE]: the pKi was 6.90. For the molecule `CCN(CCCN1CCC(c2cccc(NC(=O)C(C)C)c2)CC1)C(=O)C(c1ccccc1)c1ccccc1` [Example 126], the pKi is 8.52. With `CC(C)C(=O)Nc1ccc(F)c(C2CCN(CCCNC(=O)C(C)(C)c3ccc(Cl)cc3)CC2)c1` [Example 127], the negative-log Ki (pKi) is 6.76. Turning to `CC(C)C(=O)Nc1ccc(F)c(C2CCN(CCCNC(=O)C3(c4ccc(Cl)cc4)CCCC3)CC2)c1` [Example 128], the pKi was 8.54. As to `CC(C)C(=O)Nc1ccc(F)c(C2CCN(CCCNC(=O)C3(c4ccc(F)cc4)CCCC3)CC2)c1` [Example 129], the negative logarithm of the Ki (pKi) is 8.35. For `CC(C)C(=O)Nc1ccc(F)c(C2CCN(CCCNC(=O)C3(c4ccc(Cl)cc4)CCCCC3)CC2)c1` [Example 130], the negative logarithm of the Ki (pKi) is 8.59. As to `CC(C)C(=O)Nc1ccc(F)c(C2CCN(CCCNC(=O)C3(c4ccc(F)cc4)CCCCC3)CC2)c1` [Example 131], the pKi is 8.40.

For the molecule `Cc1ccc(C(C(=O)NCCCN2CCC(c3cc(NC(=O)C(C)C)ccc3F)CC2)c2ccc(C)cc2)cc1` [Example 132], the pKi is 9.22. As for `CC(C)C(=O)Nc1ccc(F)c(C2CCN(CCCNC(=O)C3(c4ccc(F)cc4Cl)CCCCC3)CC2)c1` [Example 133, 1-(2-CHLORO-4-FLUOROPHENYL)-N-(3-{4-[2-FLUORO-5-(ISOBUTYRYLAMINO) PHENYL]-1-PIPERIDINYL}PROPYL)CYCLO HEXANECARBOXAMIDE], the pKi was 8.23. For `Cc1ccc(NC(=O)C(C)C)cc1C1CCN(CCCNC(=O)C2(c3ccc(F)cc3Cl)CCCCC2)CC1` [Example 134], the pKi was 8.62.

As to `Cc1ccc(NC(=O)C(C)C)cc1C1CCN(CCCNC(=O)C2(c3ccc(F)cc3Cl)CCCC2)CC1` [Example 135, 1-(2-CHLORO-4-FLUOROPHENYL)-N-(3-{4-[5-(ISOBUTYRYLAMINO)-2-METHYL PHENYL]-1-PIPERIDINYL}PROPYL)CYCLOPENTANECARBOXAMIDE], the pKi was 8.28. On to `CC(C)C(=O)Nc1ccc(F)c(C2CCN(CCCNC(=O)C(F)(F)c3ccccc3)CC2)c1` [Example 136], for which the pKi is 7.31. On to `CC(C)C(=O)Nc1ccc(F)c(C2CCN(CCCNC(=O)C3(c4ccc(F)cc4Cl)CCCC3)CC2)c1` [Example 137, 1-(2-CHLORO-4-FLUOROPHENYL)-N-(3-{4-[2-FLUORO-5-(ISOBUTYRYLAMINO) PHENYL]-1-PIPERIDINYL}PROPYL)CYCLOPENTANECARBOXAMIDE], for which the pKi is 7.93. As for `CC(C)C(=O)Nc1cccc(C2CCN(CCCNC(=O)C3(c4ccc(F)cc4Cl)CCCCC3)CC2)c1` [Example 138], the negative-log Ki (pKi) was 7.99. The result for `CN(C)C(=O)Nc1cccc(C2CCN(CCCNC(=O)C(c3ccc(F)cc3)c3ccc(F)cc3)CC2)c1` [Example 139] reads 7.48. Turning to `O=C(Nc1cccc(C2CCN(CCCNC(=O)C(c3ccccc3)c3ccccc3)CC2)c1)OCc1ccccc1` [Example 140, Benzyl 3-(1-{3-[(Diphenylacetyl)Amino]Propyl}-4-Piperidinyl)Phenylcarbamate], the pKi is 6.74. Take `O=C(Nc1cccc(C2CCN(CCCNC(=O)C(c3ccc(F)cc3)c3ccc(F)cc3)CC2)c1)OCc1ccccc1` [Example 141, Benzyl 3-[1-(3-{[bis(4-fluorophenyl)acetyl]amino}propyl)-4-piperidinyl]phenylcarbamate]: the pKi was 8.06. Next, `CC(C)OC(=O)Nc1cccc(C2CCN(CCCNC(=O)C(C)(C)c3ccc(Cl)cc3)CC2)c1` [Example 142, Isopropyl 3-[1-(3-{[2-(4-Chlorophenyl)-2-Methylpropanoyl]Amino}Propyl)-4-Piperidinyl]Phenyl carbamate]: 7.11; `CC(C)OC(=O)Nc1cccc(C2CCN(CCCNC(=O)C(c3ccc(Cl)cc3)c3ccc(Cl)cc3)CC2)c1` [Example 143, Isopropyl 3-[1-(3-{[bis(4-chlorophenyl)acetyl]amino}propyl)-4-piperidinyl]phenylcarbamate]: 8.21; `CC(C)OC(=O)Nc1cccc(C2CCN(CCCNC(=O)C(c3ccccc3)c3ccccc3)CC2)c1` [Example 144, Isopropyl 3-(1-{3-[(Diphenylacetyl)Amino]Propyl}-4-Piperidinyl) Phenylcarbamate]: 7.48.

For the molecule `Cc1ccc(C(C(=O)NCCCN2CCC(c3cccc(NC(=O)OC(C)C)c3)CC2)c2ccc(C)cc2)cc1` [Example 145, ISOPROPYL 3-[1-(3-{[BIS(4-METHYLPHENYL)ACETYL]AMINO}PROPYL)-4-PIPERIDINYL]PHENYLCARBAMATE], the pKi was 7.57. As for `CC(C)OC(=O)Nc1cccc(C2CCN(CCCNC(=O)C(c3ccc(F)cc3)c3ccc(F)cc3)CC2)c1` [Example 146, ISOPROPYL 3-[1-(3-{[BIS(4-FLUOROPHENYL)ACETYL]AMINO}PROPYL)-4-PIPERIDINYL]PHENYLCARBAMATE], the pKi is 8.21. The result for `CC(C)OC(=O)Nc1cccc(C2CCN(CCCNC(=O)C3(c4ccc(F)cc4Cl)CCCCC3)CC2)c1` [Example 147, ISOPROPYL 3-{1-[3-({[1-(2-CHLORO-4-FLUOROPHENYL)CYCLOHEXYL]CARBONYL} AMINO)PROPYL]-4-PIPERIDINYL}PHENYLCARBAMATE] reads 7.38. On to `CC(C)C(=O)Nc1ccc(C2CCN(CCCNC(=O)C(c3ccccc3)c3ccccc3)CC2)cc1` [Example 148], for which the negative-log Ki (pKi) was 6.84. For `CCCC(=O)Nc1ccc(C2CCN(CCCNC(=O)C(c3ccccc3)c3ccccc3)CC2)cc1` [Example 149], the negative-log Ki (pKi) is 6.33.

As for `O=C(CC(c1ccccc1)c1ccccc1)NCCCN1CCC(c2cccc(NC(=O)C3CC3)c2)CC1` [Example 151, N-[3-(1-{3-[(3,3-DIPHENYLPROPANOYL)AMINO]PROPYL}-4-PIPERIDINYL)PHENYL] CYCLOPROPANECARBOXAMIDE], the pKi is 7.21. As to `Nc1cccc(C2CCN(CCCNC(=O)C(c3ccccc3)c3ccccc3)CC2)c1` [Example 152], the negative logarithm of the Ki (pKi) was 6.94. `Cc1ccc(NC(=O)C(C)C)cc1C1CCN(CCCNC(=O)C(O)c2ccc(F)c(F)c2)CC1` (centres unmarked) [Example 153, N-{3-[1-(3-{[(3,4-difluorophenyl)(hydroxy)acetyl]amino}propyl)-4-piperdinyl]-4-methylphenyl}-2-methylpropanamide]: the negative logarithm of the Ki (pKi) was 7.69. Regarding `Cc1ccc(NC(=O)C(C)C)cc1C1CCN(CCCNC(=O)[C@@H](C)c2ccccc2)CC1` [Example 161, 2-methyl-N-{4-methyl-3-[1-(3-{[(2S)-2-phenylpropanoyl]amino}propyl)-4-piperidinyl]phenyl} propanamide], the pKi was 7.61. Take `CC[C@@H](C(=O)NCCCN1CCC(c2cc(NC(=O)C(C)C)ccc2C)CC1)c1ccccc1` [Example 162, (2R)-N-(3-{4-[5-(isobutyrylamino)-2-methylphenyl]-1-piperidinyl}propyl)-2-phenylbutan amide]: the negative-log Ki (pKi) was 8.07. Consider `CC[C@H](C(=O)NCCCN1CCC(c2cc(NC(=O)C(C)C)ccc2C)CC1)c1ccccc1` [Example 163, (2S)-N-(3-{4-[5-(isobutyrylamino)-2-methylphenyl]-1-piperidinyl}propyl)-2-phenylbutanamide], for which the negative logarithm of the Ki (pKi) was 7.70. Take `Cc1ccc(NC(=O)C(C)C)cc1C1CCN(CCCNC(=O)[C@H](C)c2ccccc2)CC1` [Example 164, 2-methyl-N-{4-methyl-3-[1-(3-{[(2R)-2-phenylpropanoyl]amino}propyl)-4-piperidinyl]phenyl} propanamide]: the negative-log Ki (pKi) was 7.84. Consider `CC(C)C(=O)Nc1cc(C2CCN(CCCNC(=O)C(c3ccc(F)cc3)c3ccc(F)cc3)CC2)c(F)cc1F` [Example 165, N-{5-[1-(3-{[bis(4-fluorophenyl)acetyl]amino}propyl)-4-piperidinyl]-2,4-difluorophenyl}-2-methylpropanamide], for which the pKi was 8.96. For `Cc1ccc(NC(=O)C(C)C)cc1C1CCN(CCCNC(=O)[C@@H](C)c2ccc(Cl)cc2)CC1` [Example 166, (2S)-2-(4-chlorophenyl)-N-(3-{4-[5-(isobutyrylamino)-2-methylphenyl]-1-piperidinyl}propyl) propanamide], the negative-log Ki (pKi) was 8.24.
